According to patent US8759334B2, “Compounds useful for the treatment of metabolic and inflammatory diseases” (Galapagos NV, priority 2011, dated 2014):

How the values were obtained:
GPR43 [1] = biological target: T1, GPR43 (Homo sapiens, UniProt O15552); assay: Calcium mobilization assay without probenecid; assay type: cell-based; conditions: GPR43 stably expressing cells, triggered with sodium acetate at EC80, read-out: GPR43 assay without probenicid IC50
T1 construct: expressed in transfected cells
T1 sequence (O15552 1-330): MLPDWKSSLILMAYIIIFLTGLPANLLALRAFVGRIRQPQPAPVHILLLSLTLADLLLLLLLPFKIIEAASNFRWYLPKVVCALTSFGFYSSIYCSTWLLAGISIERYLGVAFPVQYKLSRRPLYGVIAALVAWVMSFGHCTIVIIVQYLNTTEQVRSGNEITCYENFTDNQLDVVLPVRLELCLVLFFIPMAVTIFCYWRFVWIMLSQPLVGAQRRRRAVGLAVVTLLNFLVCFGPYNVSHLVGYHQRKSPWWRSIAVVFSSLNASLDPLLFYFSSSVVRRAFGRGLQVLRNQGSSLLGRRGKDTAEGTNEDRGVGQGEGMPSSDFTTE
Summary of the method: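 In GPR43-expressing cells loaded with a Calcium 4 dye, antagonism was tested by a 15 min compound preincubation at 37 °C, then a sodium acetate challenge at EC80, with Ca-flux read on injection. For agonism, Ca-flux was recorded directly on compound injection.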

GPR43 [2] = biological target: T1, GPR43; assay: Calcium mobilization assay with probenecid; assay type: cell-based; conditions: GPR43 stably expressing cells; triggered with sodium acetate at EC80; 2.5 mM probenecid; read-out: GPR43 assay with probenicid IC50
Summary of the method: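 Cells stably expressing GPR43 plated overnight at 37 °C, then loaded 2 h with Calcium 4 dye plus 2.5 mM probenecid. […]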

Row | SMILES | IC50 (GPR43 [1]) | IC50 (GPR43 [2])
1 | CN(Cc1ccc(Cl)cc1)C(=O)C1(C)CCN1C(=O)Cc1ccc(-c2ccc(C#N)cc2)cc1 (stereo not shown) [Compound 24, 1-[2-(4′-Cyano-biphenyl-4-yl)-acetyl]-2-methyl-azetidine-2-carboxylic acid (4-chloro-benzyl)-methyl-amide] | > 1000 nM | > 1000 nM
2 | Cc1ccccc1-c1ccc(CC(=O)N2CCC2(C)C(=O)N(C)Cc2ccc(Cl)cc2)cc1 (stereo not shown) [Compound 25, 2-Methyl-1-[2-(2′-methyl-biphenyl-4-yl)-acetyl]-azetidine-2-carboxylic acid (4-chloro-benzyl)-methyl-amide] | > 1000 nM | > 1000 nM
3 | COC(=O)c1cccc(-c2ccc(CC(=O)N3CCC3(C)C(=O)N(C)Cc3ccc(Cl)cc3)cc2)c1 (stereo not shown) [Compound 26, methyl 4′-(2-(2-((4-chlorobenzyl)(methyl)carbamoyl)-2-methylazetidin-1-yl)-2-oxoethyl)biphenyl-3-carboxylate] | > 1000 nM | > 1000 nM
4 | CN(Cc1ccc(Cl)cc1)C(=O)C1(C)CCN1C(=O)Cc1cccc(-c2ccccc2)c1 (stereo not shown) [Compound 27, 1-(2-Biphenyl-3-yl-acetyl)-2-methyl-azetidine-2-carboxylic acid (4-chloro-benzyl)-methyl-amide] | > 1000 nM | > 1000 nM
5 | CN(Cc1ccc(Cl)cc1)C(=O)C1(C)CCN1C(=O)Cc1cccc(-c2ccccc2C(F)(F)F)c1 (stereo not shown) [Compound 28, 2-Methyl-1-[2-(2′-trifluoromethyl-biphenyl-3-yl)-acetyl]-azetidine-2-carboxylic acid (4-chloro-benzyl)-methyl-amide] | > 1000 nM | > 1000 nM
6 | CN(Cc1ccc(Cl)cc1)C(=O)C1(C)CCN1C(=O)Cc1cccc(-c2cccc(Cl)c2)c1 (stereo not shown) [Compound 29, 1-[2-(3′-Chloro-biphenyl-3-yl)-acetyl]-2-methyl-azetidine-2-carboxylic acid (4-chloro-benzyl)-methyl-amide] | > 1000 nM | > 1000 nM
7 | Cc1cc(C)cc(CC(=O)N2CCC2(C)C(=O)N(C)Cc2ccc(Br)cc2)c1 (stereo not shown) [Compound 30, 1-[2-(3,5-Dimethyl-phenyl)-acetyl]-2-methyl-azetidine-2-carboxylic acid (4-bromo-benzyl)-methyl-amide] | > 1000 nM | > 1000 nM
8 | Cc1cc(C)cc(CC(=O)N2CCC2(C)C(=O)N(C)Cc2ccc(C(C)C)cc2)c1 (stereo not shown) [Compound 31, 1-[2-(3,5-Dimethyl-phenyl)-acetyl]-2-methyl-azetidine-2-carboxylic acid (4-isopropyl-benzyl)-methyl-amide] | 501 to 1000 nM | > 1000 nM
9 | Cc1cc(C)cc(CC(=O)N2CCC2(C)C(=O)N(C)Cc2ccc(C(C)(C)C)cc2)c1 (stereo not shown) [Compound 32, 1-[2-(3,5-Dimethyl-phenyl)-acetyl]-2-methyl-azetidine-2-carboxylic acid (4-tert-butyl-benzyl)-methyl-amide] | > 1000 nM | > 1000 nM
10 | Cc1cc(C)cc(CC(=O)N2CCC2(C)C(=O)N(C)Cc2ccc(C)cc2C)c1 (stereo not shown) [Compound 33, 1-[2-(3,5-Dimethyl-phenyl)-acetyl]-2-methyl-azetidine-2-carboxylic acid (2,4-dimethyl-benzyl)-methyl-amide] | 501 to 1000 nM | > 1000 nM
11 | Cc1cc(C)cc(CC(=O)N2CCC2(C)C(=O)N(C)Cc2ccc(CC(C)C)cc2)c1 (stereo not shown) [Compound 34, 1-[2-(3,5-Dimethyl-phenyl)-acetyl]-2-methyl-azetidine-2-carboxylic acid (4-isobutyl-benzyl)-methyl-amide] | > 1000 nM | > 1000 nM
12 | CCN(Cc1ccc(Cl)cc1)C(=O)C1(C)CCN1C(=O)Cc1cc(C)cc(C)c1 (stereo not shown) [Compound 35, 1-[2-(3,5-Dimethyl-phenyl)-acetyl]-2-methyl-azetidine-2-carboxylic acid (4-chloro-benzyl)-ethyl-amide] | 101 to 500 nM | 101 to 500 nM
13 | Cc1cc(C)cc(CC(=O)N2CCC2(C)C(=O)N(C)Cc2ccc(Cl)cc2Cl)c1 (stereo not shown) [Compound 36, 1-[2-(3,5-Dimethyl-phenyl)-acetyl]-2-methyl-azetidine-2-carboxylic acid (2,4-dichloro-benzyl)-methyl-amide] | > 1000 nM | > 1000 nM
14 | Cc1cc(C)cc(CC(=O)N2CCC2(C)C(=O)N(C)Cc2ccc(OC(F)(F)F)cc2)c1 (stereo not shown) [Compound 37, 1-[2-(3,5-Dimethyl-phenyl)-acetyl]-2-methyl-azetidine-2-carboxylic acid methyl-(4-trifluoromethoxy-benzyl)-amide] | 501 to 1000 nM | > 1000 nM
15 | COc1cccc(-c2ccc(CC(=O)N3CCC3(C)C(=O)N(C)Cc3ccc(Cl)cc3)cc2)c1 (stereo not shown) [Compound 38, 1-[2-(3′-Methoxy-biphenyl-4-yl)-acetyl]-2-methyl-azetidine-2-carboxylic acid (4-chloro-benzyl)-methyl-amide] | > 1000 nM | > 1000 nM
16 | Cc1cc(C)cc(CC(=O)N2CCC2(C)C(=O)N(C)Cc2ccc(Cl)c(F)c2)c1 (stereo not shown) [Compound 42, 1-[2-(3,5-Dimethyl-phenyl)-acetyl]-2-methyl-azetidine-2-carboxylic acid (4-chloro-3-fluoro-benzyl)-methyl-amide] | > 1000 nM | > 1000 nM
17 | Cc1ccc(CNC(=O)C2(C)CCN2C(=O)Cc2ccc(Cl)cc2Cl)cc1 (stereo not shown) [Compound 43, 1-[2-(2,4-Dichloro-phenyl)-acetyl]-2-methyl-azetidine-2-carboxylic acid 4-methyl-benzylamide] | > 1000 nM | > 1000 nM
18 | CC1(C(=O)NCc2ccc(C(F)(F)F)cc2)CCN1C(=O)Cc1ccc(Cl)cc1Cl (stereo not shown) [Compound 44, 1-[2-(2,4-Dichloro-phenyl)-acetyl]-2-methyl-azetidine-2-carboxylic acid 4-trifluoromethyl-benzylamide] | > 1000 nM | > 1000 nM

More lines, now with the values ahead:

Row | IC50 (GPR43 [1]) | IC50 (GPR43 [2]) | SMILES
19 | > 1000 nM | > 1000 nM | CN(Cc1ccc(C(F)(F)F)cc1)C(=O)C1(C)CCN1C(=O)Cc1ccc(Cl)cc1Cl (stereo not shown) [Compound 45, 1-[2-(2,4-Dichloro-phenyl)-acetyl]-2-methyl-azetidine-2-carboxylic acid methyl-(4-trifluoromethyl-benzyl)-amide]
20 | > 1000 nM | > 1000 nM | Cc1cc(C)cc(CC(=O)N2CCC2(C)C(=O)N(Cc2ccc(Cl)cc2)C2CC2)c1 (stereo not shown) [Compound 46, 1-[2-(3,5-Dimethyl-phenyl)-acetyl]-2-methyl-azetidine-2-carboxylic acid (4-chloro-benzyl)-cyclopropyl-amide]
21 | 501 to 1000 nM | 501 to 1000 nM | COC(=O)CN(Cc1ccc(Cl)cc1)C(=O)C1(C)CCN1C(=O)Cc1cc(C)cc(C)c1 (stereo not shown) [Compound 48, ((4-Chloro-benzyl)-{1-[2-(3,5-dimethyl-phenyl)-acetyl]-2-methyl-azetidine-2-carbonyl}-amino)-acetic acid methyl ester]
22 | 101 to 500 nM | 101 to 500 nM | Cc1cc(C)cc(CC(=O)N2CCC2(C)C(=O)N(CC(=O)O)Cc2ccc(Cl)cc2)c1 (stereo not shown) [Compound 49, ((4-Chloro-benzyl)-{1-[2-(3,5-dimethyl-phenyl)-acetyl]-2-methyl-azetidine-2-carbonyl}-amino)-acetic acid]
23 | > 1000 nM | > 1000 nM | Cc1c(C(=O)N2CCC2(C)C(=O)N(C)Cc2ccc(Cl)cc2)oc2ccccc12 (stereo not shown) [Compound 50, N-(4-chlorobenzyl)-N,2-dimethyl-1-(3-methylbenzofuran-2-carbonyl)azetidine-2-carboxamide]
24 | > 1000 nM | > 1000 nM | Cc1cccc(CNC(=O)C2(C)CCN2C(=O)Cc2ccc(Cl)cc2Cl)c1 (stereo not shown) [Compound 51, 1-[2-(2,4-Dichloro-phenyl)-acetyl]-2-methyl-azetidine-2-carboxylic acid 3-methyl-benzylamide]
25 | > 1000 nM | > 1000 nM | CC1(C(=O)NCc2ccc(Cl)cc2)CCN1C(=O)C1(c2ccc(Cl)cc2Cl)CC1 (stereo not shown) [Compound 52, N-(4-chlorobenzyl)-1-(1-(2,4-dichlorophenyl)cyclopropanecarbonyl)-2-methylazetidine-2-carboxamide]
26 | 101 to 500 nM | 101 to 500 nM | CNC(=O)CN(Cc1ccc(Cl)cc1)C(=O)C1(C)CCN1C(=O)Cc1cc(C)cc(C)c1 (stereo not shown) [Compound 53, 1-[2-(3,5-Dimethyl-phenyl)-acetyl]-2-methyl-azetidine-2-carboxylic acid (4-chloro-benzyl)-methylcarbamoylmethyl-amide]
27 | 501 to 1000 nM | > 1000 nM | Cc1cc(C)cc(CC(=O)N2CCC2(C)C(=O)N(CC(=O)N(C)C)Cc2ccc(Cl)cc2)c1 (stereo not shown) [Compound 54, 1-[2-(3,5-Dimethyl-phenyl)-acetyl]-2-methyl-azetidine-2-carboxylic acid (4-chloro-benzyl)-dimethylcarbamoylmethyl-amide]
28 | > 1000 nM | > 1000 nM | COC(=O)[C@H](C)N(Cc1ccc(Cl)cc1)C(=O)C1(C)CCN1C(=O)Cc1cc(C)cc(C)c1 (stereo partly drawn) [Compound 55, (S)-2-((4-Chloro-benzyl)-{1-[2-(3,5-dimethyl-phenyl)-acetyl]-2-methyl-azetidine-2-carbonyl}-amino)-propionic acid methyl ester]
29 | > 1000 nM | > 1000 nM | COCCN(Cc1ccc(Cl)cc1)C(=O)C1(C)CCN1C(=O)Cc1cc(C)cc(C)c1 (stereo not shown) [Compound 56, 1-[2-(3,5-Dimethyl-phenyl)-acetyl]-2-methyl-azetidine-2-carboxylic acid (4-chloro-benzyl)-(2-methoxy-ethyl)-amide]
